We go through five molecules from US7960129B2, “Assays and methods for determining STIM2 activity” (The Queen's Medical Center, priority 2007, dated 2011).

Assay [1] addresses T1, STIM2+CRACM1-expressing HEK293 cells (Homo sapiens, UniProt Q9P246).
T1 construct: expressed in transfected cells; host or cells: HEK293
Nature of the assay: Whole-cell patch-clamp of CRAC currents in STIM2+CRACM1 cells. Format: cell-based. To be noted: for suppression of the secondary phase of CRAC current: added to pipette solution: ATP 3 mM, GTP 0.3 mM, calmodulin 100 μM, [Ca2+]i 150 nM. The method, then: Patch-clamp experiments were performed in the tight-seal whole-cell configuration at 21-25° C. High-resolution current recordings were acquired using the EPC-9 (HEKA). Voltage ramps of 50 ms duration spanning a range of −100 to +100 mV were delivered from a holding potential of 0 mV at a rate of 0.5 Hz over a period of 100-700 sec. All voltages were corrected for a liquid junction potential of 10 mV (3 mV with Cl^− as main internal anion). Currents were filtered at 2.9 kHz and digitized at 100 μs intervals. Capacitive currents were determined and corrected before each voltage ramp. Extracting the current amplitude at −80 mV from individual ramp current records assessed the low-resolution temporal development of currents. Where applicable, statistical errors of averaged data are given as means±S.E.M. with n determinations. Standard external solutions were as follows (in mM): 120 NaCl, 10 CsCl, 2.8 KCl, 2 MgCl2, 10 CaCl2, 10 TEA-Cl, 10 HEPES, 10 glucose, pH 7.2 with NaOH, 300 mOsm. In some experiments, 2 μM or 50 μM 2-aminoethyldiphenyl borate (2-APB) or 10 μM G418 were added to the standard external solution and applied through wide-tipped puffer pipettes. Standard internal solutions were as follows (in mM): 120 Cs-glutamate, 8 NaCl, 10 Cs-BAPTA, 3 MgCl2, 10 HEPES, 0.02 IP3, pH 7.2 with CsOH, 300 mOsm. As indicated in the figure legends, for some experiments [Ca^2+]i was buffered to 150 nM by 20 mM Cs•BAPTA and 8 mM CaCl2 or 20 mM Cs•EGTA and 8.9 mM CaCl2. For passive-depletion experiments, the internal solution was supplemented with Cs•BAPTA in the absence of IP3 and Ca^2+. In some experiments, Cs-glutamate and Cs•BAPTA were equimolarly replaced by KCl and K•BAPTA. In others, G418, Na•ATP and Na•GTP or calmodulin were added to intracellular solutions as specified in the figure legends. All chemicals were purchased from Sigma-Aldrich Co.

A further assay relates to CRAC currents. To be noted: cited from earlier work; for doses that inhibit CRAC currents: high doses.
For assay [2], the target named is T2, STIM1+CRACM1-expressing HEK293 cells (Homo sapiens, UniProt Q13586+Q96D31).
T2 construct: expressed in transfected cells; host or cells: HEK293
The experiment in a line: Whole-cell patch-clamp of CRAC currents in STIM1+CRACM1 cells. To be noted: 50 μM 2-APB; no IP3, [Ca2+]i buffered to 150 nM. Format: cell-based. On the procedure: Patch-clamp experiments were performed in the tight-seal whole-cell configuration at 21-25° C. High-resolution current recordings were acquired using the EPC-9 (HEKA). […] Currents were filtered at 2.9 kHz and digitized at 100 μs intervals. Capacitive currents were determined and corrected before each voltage ramp. Extracting the current amplitude at −80 mV from individual ramp current records assessed the low-resolution temporal development of currents. […] All chemicals were purchased from Sigma-Aldrich Co.
For orientation: In patch-clamp work, channel activity is measured electrically.

Read-outs that look alike come from different tables or passages of the source.

T1 sequence (Q9P246 15-746): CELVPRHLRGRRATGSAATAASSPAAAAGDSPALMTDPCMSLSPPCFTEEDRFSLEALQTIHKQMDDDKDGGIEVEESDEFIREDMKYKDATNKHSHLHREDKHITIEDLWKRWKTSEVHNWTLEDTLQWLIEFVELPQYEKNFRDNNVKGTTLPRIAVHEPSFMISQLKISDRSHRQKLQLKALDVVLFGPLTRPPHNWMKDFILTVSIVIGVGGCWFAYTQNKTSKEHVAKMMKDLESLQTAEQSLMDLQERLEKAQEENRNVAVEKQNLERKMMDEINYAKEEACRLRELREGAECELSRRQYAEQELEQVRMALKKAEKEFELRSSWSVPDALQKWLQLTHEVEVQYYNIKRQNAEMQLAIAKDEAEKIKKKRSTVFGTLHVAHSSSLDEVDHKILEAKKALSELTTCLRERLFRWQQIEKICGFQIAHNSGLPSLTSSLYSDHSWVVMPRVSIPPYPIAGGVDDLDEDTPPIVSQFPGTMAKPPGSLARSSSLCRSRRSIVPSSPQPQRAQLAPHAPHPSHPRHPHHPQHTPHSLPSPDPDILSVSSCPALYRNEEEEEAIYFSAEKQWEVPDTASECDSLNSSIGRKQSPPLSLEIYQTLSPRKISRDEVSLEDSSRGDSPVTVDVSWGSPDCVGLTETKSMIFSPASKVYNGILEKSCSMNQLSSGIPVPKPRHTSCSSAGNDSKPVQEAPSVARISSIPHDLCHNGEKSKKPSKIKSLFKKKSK
T2 sequence (Q13586 23-685): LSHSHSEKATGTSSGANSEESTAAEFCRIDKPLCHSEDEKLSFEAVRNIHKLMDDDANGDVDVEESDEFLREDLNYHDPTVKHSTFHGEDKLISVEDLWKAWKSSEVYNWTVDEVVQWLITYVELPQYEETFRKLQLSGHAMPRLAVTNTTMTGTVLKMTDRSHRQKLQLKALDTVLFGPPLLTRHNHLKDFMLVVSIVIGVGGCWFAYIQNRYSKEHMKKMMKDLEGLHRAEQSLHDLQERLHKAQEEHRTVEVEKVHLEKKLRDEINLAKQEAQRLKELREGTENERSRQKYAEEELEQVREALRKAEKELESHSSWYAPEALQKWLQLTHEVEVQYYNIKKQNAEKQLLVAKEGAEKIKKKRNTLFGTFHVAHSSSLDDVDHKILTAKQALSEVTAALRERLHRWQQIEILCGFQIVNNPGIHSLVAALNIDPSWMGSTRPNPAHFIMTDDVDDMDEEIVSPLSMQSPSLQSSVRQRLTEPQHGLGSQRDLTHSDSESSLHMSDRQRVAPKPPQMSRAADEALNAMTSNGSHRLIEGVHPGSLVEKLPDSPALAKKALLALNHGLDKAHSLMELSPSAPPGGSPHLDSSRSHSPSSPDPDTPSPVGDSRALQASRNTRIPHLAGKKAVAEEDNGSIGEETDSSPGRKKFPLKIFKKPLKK
T2 sequence (Q96D31 whole entry): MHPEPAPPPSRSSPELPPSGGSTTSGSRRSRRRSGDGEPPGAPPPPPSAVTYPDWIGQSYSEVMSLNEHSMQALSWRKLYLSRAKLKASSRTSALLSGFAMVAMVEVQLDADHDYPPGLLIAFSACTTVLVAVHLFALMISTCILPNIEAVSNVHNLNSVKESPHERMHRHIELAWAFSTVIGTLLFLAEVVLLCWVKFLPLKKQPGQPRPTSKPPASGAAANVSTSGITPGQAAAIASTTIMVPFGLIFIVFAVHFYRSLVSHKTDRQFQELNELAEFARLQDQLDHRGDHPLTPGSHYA

`CN[C@@H]1[C@@H](O)[C@@H](O[C@@H]2[C@@H](O)[C@H](O[C@H]3O[C@H]([C@@H](C)O)[C@@H](O)[C@H](O)[C@H]3N)[C@@H](N)C[C@H]2N)OC[C@]1(C)O` [G418]: the IC50 in assay [1] was 520 nM; in assay [1] (half-maximal inhibitory concentration for IP3-induced CRACM1 currents, cells perfused with G418, both phases of the current), 500 nM.
With `Nc1ncnc2c1ncn2[C@@H]1O[C@H](COP(=O)(O)OP(=O)(O)OP(=O)(O)O)[C@@H](O)[C@H]1O` [ATP], in assay [1], the “suppression of the secondary phase of CRAC current” value was “failed to suppress”.
Take calmodulin: the “suppression of the secondary phase of CRAC current” value in assay [1] is given as “secondary phase was observed”.
As for `Nc1nc2c(ncn2[C@@H]2O[C@H](COP(=O)(O)OP(=O)(O)OP(=O)(O)O)[C@@H](O)[C@H]2O)c(=O)[nH]1` [GTP], in assay [1], the “suppression of the secondary phase of CRAC current” value is listed as “failed to suppress”.
As for `NCCOB(c1ccccc1)c1ccccc1` [2-APB, 2-aminoethoxydiphenyl borate], the “doses that inhibit CRAC currents” value in the assay on CRAC currents (unit as printed in b55) was ≥ 10 mM; in the assay with CRAC currents it was ≥ 0.01 mM. Further, the “doses with facilitatory effects on CRAC currents” value in the assay with CRAC currents (low doses) was ≤ 5 µM. In addition, the “CRAC currents activated by 2-APB” value in assay [1] (50 μM 2-APB, stores depleted by IP3 or kept full ([Ca2+]i 150 nM), cells grown without G418) is reported as “large, transient CRAC currents”. Besides, in assay [1] (2 mM 2-APB as printed, cells grown in G418, no IP3-induced current), the “CRACM1 currents induced by external application of 2-APB” value is “large CRACM1 currents”. Besides, the “activation time of 2-APB-induced current” value in assay [1] (high-resolution recording at fixed membrane potential) is “within a few seconds”. The “effect of 2-APB on G418-mediated suppression of CRAC currents” value in assay [1] (regardless of the filling state of stores) is on record as “capable of overcoming the G418-mediated suppression”. In assay [2], the “2-APB-induced current without store depletion” value is on record as “not observed”.

For orientation: IC50 means the concentration needed to halve the response being measured. High values mean weaker potency in that assay, low ones greater potency in that assay.
